In patent US20260285816A1, “Piperazinyl-Modified Quinazolinyl-Aryl Urea Derivative, And Preparation Method And Use Thereof” (Guangxi Normal University, priority 2025, published 2026):
Read-outs that look alike come from different tables or passages of the source.

Experiments:
Assay type in all cases: cell-based, human
MG-63 cells = experiment: CCK-8 anti-proliferative assay, MG-63; conditions: Homo sapiens, MG-63; Table 11; co-incubated 48 h; read-out: Anti-proliferative activity (IC50 ± standard deviation) MG-63
How it was run: (§1)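 Compound was added at final concentrations of 1 to 30 μM, in triplicate, to cells at 70% confluence (5,000 per well seeded). After co-incubation, CCK-8 was added for 1–4 h depending on the cell line. Inhibition from OD450 relative to untreated cells gave IC50.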

MCF-7 cells = experiment: CCK-8 anti-proliferative assay, MCF-7; conditions: Homo sapiens, MCF7; Table 12; co-incubated 48 h; read-out: Anti-proliferative activity (IC50 ± standard deviation) MCF-7
How it was run: (§2)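 Anti-proliferative effect is measured by CCK-8 after compound exposure at nine final concentrations between 1 and 30 μM. Treatment starts once seeded cells (5,000/well) reach 70% confluency at 37° C., 5% CO2.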

Hep G2 cells = experiment: CCK-8 anti-proliferative assay, Hep G2; conditions: for IC50: Homo sapiens, HepG2
How it was run: as §1

[1] = tested on: embryonic lung fibroblasts (WI-38); experiment: CCK-8 anti-proliferative assay, normal cells WI-38; conditions: Homo sapiens, WI-38, Table 13, co-incubated 48 h, read-out: Anti-proliferative activity (IC50 ± standard deviation) WI-38
How it was run: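 Growth inhibition was measured by CCK-8 in human cells seeded at 5,000 per well and treated at 70% confluency. Compound exposure spanned 1, 2, 4, 6, 8, 12, 16, 24 and 30 μM for designated durations at 37° C. Percent inhibition against vehicle control at OD 450 nm yielded median inhibitory concentrations.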

T24 cells = experiment: CCK-8 anti-proliferative assay, T24; conditions: Homo sapiens, T-24; Table 10; co-incubated 48 h; read-out: Anti-proliferative activity (IC50 ± standard deviation) T24
How it was run: as §1

A549 cells = experiment: CCK-8 anti-proliferative assay, A549; conditions: Homo sapiens, A549; Table 13; co-incubated 48 h; read-out: Anti-proliferative activity (IC50 ± standard deviation) A549
How it was run: as §2

143B cells = experiment: CCK-8 anti-proliferative assay, 143B; conditions: Homo sapiens, 143B; Table 11; co-incubated 48 h; read-out: Anti-proliferative activity (IC50 ± standard deviation) 143B
How it was run: as §1

UM-UC-3 cells = experiment: CCK-8 anti-proliferative assay, UM-UC-3; conditions: Homo sapiens, UMUC3; Table 10; co-incubated 48 h; read-out: Anti-proliferative activity (IC50 ± standard deviation) UM-UC-3
How it was run: as §2

[2] = tested on: immortalized ureteral epithelial cells (SV-HUC-1); experiment: CCK-8 anti-proliferative assay, normal cells SV-HUC-1; conditions: Homo sapiens, SV-HUC1; Table 13; normal cells; co-incubated 48 h; read-out: Anti-proliferative activity (IC50 ± standard deviation) SV-HUC-1
How it was run: as §2

J82 cells = experiment: CCK-8 anti-proliferative assay, J82; conditions: Homo sapiens, J82; Table 10; co-incubated 48 h; read-out: Anti-proliferative activity (IC50 ± standard deviation) J82
How it was run: as §2

5637 cells = experiment: CCK-8 anti-proliferative assay, 5637; conditions: Homo sapiens; Table 10; co-incubated 48 h; read-out: Anti-proliferative activity (IC50 ± standard deviation) 5637
How it was run: as §2

BxPC-3 cells = experiment: CCK-8 anti-proliferative assay, BxPC-3; conditions: for IC50: Homo sapiens, BXPC-3, Table 11, co-incubated 48 h, read-out: Anti-proliferative activity (IC50 ± standard deviation) BxPC-3
How it was run: as §1

PANC-1 cells = experiment: CCK-8 anti-proliferative assay, PANC-1; conditions: for IC50: Homo sapiens, PANC-1, Table 11, co-incubated 48 h, read-out: Anti-proliferative activity (IC50 ± standard deviation) PANC-1
How it was run: as §1

HeLa cells = experiment: CCK-8 anti-proliferative assay, HeLa; conditions: Homo sapiens, HeLa; Table 12; co-incubated 48 h; read-out: Anti-proliferative activity (IC50 ± standard deviation) HeLa
How it was run: as §2

SK-OV-3 cells = experiment: CCK-8 anti-proliferative assay, SK-OV-3; conditions: Homo sapiens, SK-OV-3; Table 12; co-incubated 48 h; read-out: Anti-proliferative activity (IC50 ± standard deviation) SK-OV-3
How it was run: as §2

[3] = Table 12, co-incubated 48 h, read-out: Anti-proliferative activity (IC50 ± standard deviation) Hep G2

Row | Compound | IC50 (MG-63 cells) | IC50 (MCF-7 cells) | IC50 (Hep G2 cells; [3]) | IC50 [1] | IC50 (T24 cells) | IC50 (A549 cells) | IC50 (143B cells) | IC50 (UM-UC-3 cells) | IC50 [2] | IC50 (J82 cells) | IC50 (5637 cells) | IC50 (BxPC-3 cells) | IC50 (PANC-1 cells) | IC50 (HeLa cells) | IC50 (SK-OV-3 cells) | Anti-proliferative activity against Hep G2 versus comparative series, in words (Hep G2 cells) | IC50 (Hep G2 cells; read-out: IC50 on Hep G2) | Sensitivity of BxPC-3 / anti-proliferative activity against BxPC-3, in words (BxPC-3 cells) | Sensitivity of PANC-1, in words (PANC-1 cells)
1 | COc1cc2ncnc(NCc3cccc(NC(=O)Nc4cccc(C)c4)c3)c2cc1OCCCCCCN1CCC(CN2CCN(c3ccccn3)CC2)CC1 [Compound 8-2c, N-(3-(((7-methoxy-6-((6-(4-((4-(pyridin-2-yl)piperazin-1-yl)methyl)piperidin-1-yl)hexyl)oxy)quinazolin-4-yl)amino)methyl)phenyl)-N′-(3-methylphenyl)urea] | 6.83 ± 0.62 µM | 6.69 ± 0.48 µM | 4.69 ± 0.36 µM | 11.2 ± 0.49 µM | 7.29 ± 0.61 µM | 8.39 ± 0.85 µM | 6.01 ± 0.46 µM | 8.98 ± 0.89 µM | 8.28 ± 0.51 µM | 7.02 ± 0.58 µM | 7.06 ± 0.57 µM | 13.4 ± 0.88 µM | 19.2 ± 1.08 µM | 6.19 ± 0.53 µM | 7.94 ± 0.66 µM |  |  |  | 
2 | COc1cc2ncnc(NCc3cccc(NC(=O)Nc4ccc(C)cc4)c3)c2cc1OCCCCCCN1CCC(CN2CCN(c3ccccn3)CC2)CC1 [Compound 8-2d, N-(3-(((7-methoxy-6-((6-(4-((4-(pyridin-2-yl)piperazin-1-yl)methyl)piperidin-1-yl)hexyl)oxy)quinazolin-4-yl)amino)methyl)phenyl)-N′-(4-methylphenyl)urea] | 7.29 ± 0.62 µM | 7.92 ± 0.51 µM | 3.82 ± 0.25 µM | 9.79 ± 0.38 µM | 6.62 ± 0.49 µM | 9.23 ± 0.61 µM | 6.92 ± 0.39 µM | 7.58 ± 0.79 µM | 7.94 ± 0.44 µM | 13.8 ± 1.33 µM | 14.3 ± 0.89 µM | 9.29 ± 0.73 µM | 25.4 ± 2.04 µM | 4.79 ± 0.38 µM | 6.79 ± 0.62 µM |  |  |  | 
3 | COc1cc2ncnc(NCc3cccc(NC(=O)Nc4ccc(C)cc4C)c3)c2cc1OCCCCCCN1CCC(CN2CCN(c3ccccn3)CC2)CC1 [Compound 8-2e, N-(3-(((7-methoxy-6-((6-(4-((4-(pyridin-2-yl)piperazin-1-yl)methyl)piperidin-1-yl)hexyl)oxy)quinazolin-4-yl)amino)methyl)phenyl)-N′-(2,4-dimethylphenyl)urea] | 7.03 ± 0.71 µM | 7.65 ± 0.69 µM | 3.68 ± 0.19 µM | 10.9 ± 0.66 µM | 5.57 ± 0.36 µM | 4.92 ± 0.29 µM | 5.19 ± 0.33 µM | 6.68 ± 0.47 µM | 7.56 ± 0.38 µM | 5.31 ± 0.26 µM | 4.31 ± 0.42 µM | 5.46 ± 0.44 µM | 8.37 ± 0.66 µM | 5.26 ± 0.29 µM | 7.26 ± 0.72 µM | significantly better than that of 9a to 9y | 3.68 ± 0.19 µM | heightened sensitivity | heightened sensitivity
4 | COc1cc2ncnc(NCc3cccc(NC(=O)Nc4cc(C)cc(C)c4)c3)c2cc1OCCCCCCN1CCC(CN2CCN(c3ccccn3)CC2)CC1 [Compound 8-2f, N-(3-(((7-methoxy-6-((6-(4-((4-(pyridin-2-yl)piperazin-1-yl)methyl)piperidin-1-yl)hexyl)oxy)quinazolin-4-yl)amino)methyl)phenyl)-N′-(3,5-dimethylphenyl)urea] | 6.92 ± 0.53 µM | 8.09 ± 0.48 µM | 11.7 ± 0.84 µM | 9.89 ± 0.53 µM | 6.01 ± 0.46 µM | 7.67 ± 0.93 µM | 5.75 ± 0.36 µM | 12 ± 0.86 µM | 11.6 ± 0.79 µM | 12 ± 0.87 µM | 6.91 ± 0.67 µM | 9.06 ± 0.42 µM | 12.8 ± 0.62 µM | 7.25 ± 0.38 µM | 14.2 ± 0.84 µM |  |  |  | 
5 | CCc1ccccc1NC(=O)Nc1cccc(CNc2ncnc3cc(OC)c(OCCCCCCN4CCC(CN5CCN(c6ccccn6)CC5)CC4)cc23)c1 [Compound 8-2g, N-(3-(((7-methoxy-6-((6-(4-((4-(pyridin-2-yl)piperazin-1-yl)methyl)piperidin-1-yl)hexyl)oxy)quinazolin-4-yl)amino)methyl)phenyl)-N′-(2-ethylphenyl)urea] | 6.04 ± 0.65 µM | 7.62 ± 0.77 µM | 6.38 ± 0.44 µM | 9.39 ± 0.41 µM | 7.04 ± 0.55 µM | 6.59 ± 0.64 µM | 5.37 ± 0.29 µM | 11.6 ± 0.62 µM | 7.42 ± 0.35 µM | 5.76 ± 0.31 µM | 6.04 ± 0.43 µM | 8.56 ± 0.72 µM | 8.79 ± 0.98 µM | 5.62 ± 0.44 µM | 8.96 ± 0.83 µM |  |  |  | 
6 | COc1cc2ncnc(NCc3cccc(NC(=O)Nc4ccc(C(C)C)cc4)c3)c2cc1OCCCCCCN1CCC(CN2CCN(c3ccccn3)CC2)CC1 [Compound 8-2i, N-(3-(((7-methoxy-6-((6-(4-((4-(pyridin-2-yl)piperazin-1-yl)methyl)piperidin-1-yl)hexyl)oxy)quinazolin-4-yl)amino)methyl)phenyl)-N′-(4-isopropylphenyl)urea] | 4.79 ± 0.46 µM | 6.21 ± 0.63 µM | 3.85 ± 0.29 µM | 10.5 ± 0.36 µM | 5.92 ± 0.47 µM | 7.63 ± 0.87 µM | 6.38 ± 0.33 µM | 6.32 ± 0.44 µM | 10.8 ± 0.74 µM | 5.88 ± 0.35 µM | 4.24 ± 0.32 µM | 8.97 ± 0.89 µM | 9.42 ± 0.83 µM | 4.97 ± 0.48 µM | 6.69 ± 0.49 µM |  |  |  | 
7 | COc1ccccc1NC(=O)Nc1cccc(CNc2ncnc3cc(OC)c(OCCCCCCN4CCC(CN5CCN(c6ccccn6)CC5)CC4)cc23)c1 [Compound 8-2k, N-(3-(((7-methoxy-6-((6-(4-((4-(pyridin-2-yl)piperazin-1-yl)methyl)piperidin-1-yl)hexyl)oxy)quinazolin-4-yl)amino)methyl)phenyl)-N′-(2-methoxyphenyl)urea] | 6.38 ± 0.43 µM | 6.68 ± 0.79 µM | 4.99 ± 0.47 µM | 11.2 ± 0.65 µM | 5.34 ± 0.27 µM | 14.2 ± 1.31 µM | 6.08 ± 0.37 µM | 7.19 ± 0.52 µM | 13 ± 0.88 µM | 5.68 ± 0.42 µM | 5.63 ± 0.38 µM | 7.11 ± 0.79 µM | 15.9 ± 0.94 µM | 5.51 ± 0.49 µM | 6.32 ± 0.56 µM |  |  |  | 
8 | COc1ccc(NC(=O)Nc2cccc(CNc3ncnc4cc(OC)c(OCCCCCCN5CCC(CN6CCN(c7ccccn7)CC6)CC5)cc34)c2)cc1 [Compound 8-2l, N-(3-(((7-methoxy-6-((6-(4-((4-(pyridin-2-yl)piperazin-1-yl)methyl)piperidin-1-yl)hexyl)oxy)quinazolin-4-yl)amino)methyl)phenyl)-N′-(4-methoxyphenyl)urea] | 7.69 ± 0.58 µM | 7.29 ± 0.63 µM | 4.74 ± 0.62 µM | 13.9 ± 0.71 µM | 6.02 ± 0.46 µM | > 30 µM | 6.75 ± 0.41 µM | 12 ± 0.94 µM | 10.9 ± 0.69 µM | 7.83 ± 0.69 µM | 9.12 ± 0.59 µM | 18.9 ± 1.24 µM | > 30 µM | 6.42 ± 0.69 µM | 11.7 ± 0.88 µM |  |  |  | 
9 | COc1cc2ncnc(NCc3cccc(NC(=O)Nc4ccc(F)cc4)c3)c2cc1OCCCCCCN1CCC(CN2CCN(c3ccccn3)CC2)CC1 [Compound 8-2n, N-(3-(((7-methoxy-6-((6-(4-((4-(pyridin-2-yl)piperazin-1-yl)methyl)piperidin-1-yl)hexyl)oxy)quinazolin-4-yl)amino)methyl)phenyl)-N′-(4-fluorophenyl)urea] | 8.39 ± 0.66 µM | 12.8 ± 0.85 µM | 8.51 ± 0.67 µM | 9.98 ± 0.53 µM | 5.82 ± 0.36 µM | 15.4 ± 0.83 µM | 6.71 ± 0.48 µM | 12.8 ± 0.76 µM | 14.4 ± 0.77 µM | 15 ± 1.19 µM | 8.61 ± 0.73 µM | 14.4 ± 1.55 µM | 18.8 ± 1.43 µM | 12.7 ± 0.92 µM | 5.93 ± 0.61 µM |  |  |  | 
